Entries after “also recorded” stand apart in the source; their conditions may differ. Read-outs that look alike come from different tables or passages of the source. In the oligonucleotide strings, read from the 5' end, every base follows the letter of its sugar. An asterisk marks phosphorothioate; unmarked linkages are phosphodiester. Other units and linkages are bracketed, terminal groups are in braces. A string of capitals states the bases alone. [s2] = phosphorodithioate linkage; d = 2'-deoxy (DNA)

The text below walks through data of patent publication WO2016071431A1, “A combination for cancer therapy” (Stichting Katholieke Universiteit, priority 2014, dated 2016).

Data set [1] deals with B16-F10 melanoma. In words: Combination with CpG in B16-F10 melanoma, tumor growth and survival. Type of data set: in vivo, mouse. As to conditions: CpG combination study; P-3Fax-Neu5Ac 0.3mg intratumoral three times per week and/or CpG 100μg peritumoral day 14 and 21.
Data set [2] deals with B16-F10 melanoma. In words: Intratumoral treatment of subcutaneous B16-F10 melanoma, tumor growth. The class given is in vivo, mouse. Particulars: stand-alone, 0.3mg (10mg/kg) or 1mg (30mg/kg) intratumoral, three times per week for four weeks, C57BL/6 mice.
In a further data set the test system is sialic acid expression. In words: Sialic acid expression in tumor tissue and other organs after intratumoral injections (lectin flow cytometry). The class given is in vivo, mouse. As to conditions: after 3 intratumoral injections. (In flow cytometry, cells or beads pass a laser one at a time.)
The next data set deals with CD8+ cells. In words: Tumor infiltration of immune cells after intratumoral injections (flow cytometry). Type of data set: in vivo, mouse. Particulars: after 3 intratumoral injections, 0.3mg.
For data set [3], the system named is B16-F10 melanoma. Description: Effect on B16-F10 tumor growth after depletion of effector immune cells. The class given is in vivo, mouse.
Another data set deals with 9464D neuroblastoma. In words: Intratumoral treatment of subcutaneous 9464D neuroblastoma, tumor growth. Particulars: 10mg/kg or 20m/kg intratumoral three times per week until day 50, C57BL/6 mice. Type of data set: in vivo, mouse.
Data set [4] concerns Mouse bone marrow-derived dendritic cells. In words: TLR-mediated maturation of mouse bone marrow-derived dendritic cells (CD80). The class given is cell-based. As to conditions: three days with P-3Fax-Neu5Ac, then 24 hours LPS, CpG or polyI/C.
The test system of data set [5] is Human monocyte-derived dendritic cells. In words: TLR-mediated maturation of human monocyte-derived dendritic cells (CD80). The class given is cell-based. As to conditions: six donors, four days with P-3Fax-Neu5Ac, then 24 hours polyI/C, R848 or LPS.
A further data set relates to mouse melanoma cells. As to conditions: cited from earlier work.
Another data set relates to mammalian cells. As to conditions: Rillahan et al, 2012, cited from earlier work.
The subject of the next data set is tumor cells. Particulars: Büll et al, 2013; cited from earlier work.
For the next data set, the system named is melanoma cells. As to conditions: Büll et al, 2013; cited from earlier work.

On to “CpG: CpG oligodeoxynucleotide immune adjuvant; more preferred: phosphodithioate backbone and sequence 5'-TCCATGACGTTCCTGATGCT-3' (DNA dT[s2]dC[s2]dC[s2]dA[s2]dT[s2]dG[s2]dA[s2]dC[s2]dG[s2]dT[s2]dT[s2]dC[s2]dC[s2]dT[s2]dG[s2]dA[s2]dT[s2]dG[s2]dC[s2]dT)”, for which, in the data set on B16-F10 melanoma [1], the “median survival time / survival time” value was “no effect on tumor growth and median survival time”; the tumor growth entry is listed as “almost no effect on tumor growth”.

Regarding `COC(=O)C1(OC(C)=O)OC(C(OC(C)=O)C(COC(C)=O)OC(C)=O)C(NC(C)=O)C(OC(C)=O)C1F` (stereo not shown) [P-3Fax-Neu5Ac], the tumor growth entry in the data set on B16-F10 melanoma [2] is reported as “hamper B 16-F 10 melanoma growth; also recorded: antagonizes tumor growth in a dose-dependent manner”; in the data set on B16-F10 melanoma [2] (listed as glycomimetic), “delayed tumor growth modestly”; in the data set with 9464D neuroblastoma, “hamper 9464D neuroblastoma growth”. For the same compound, in the data set on sialic acid expression (0.3mg or 1mg, MALII, SNA-I or PNA lectin), the “sialic acid expression in tumor tissue” value is “block sialic acid expression in the tumor mass; also recorded: reduction of sialic acid expression in the isolated tumor tissue”. For the same compound, the “sialic acid expression in other organs such as the spleen” value in the data set on sialic acid expression (fluorescent sialic acid binding lectins) is recorded as “not other organs such as the spleen”. The “infiltration of immune cells in the tumor” value in the data set with CD8+ cells is “enhanced infiltration of immune cells, especially CD8+ cells in the tumor”. In addition, the “tumor growth suppression mediated by CD8+ cells” value with B16-F10 melanoma [3] (B16-F10 melanoma model, CD8+ depleted versus non-depleted mice) was “mediated by effector CD8+ immune cells”. Also, the “effect of sialic acid blockade on tumor growth upon CD4+ cell depletion” value in the data set with B16-F10 melanoma [3] (CD4+ cell depletion, 0.3mg intratumoral three times per week) was “unaffected”. The “effect of sialic acid blockade on tumor growth upon CD8+ cell depletion” value in the data set with B16-F10 melanoma [3] (CD8+ cell depletion, 0.3mg intratumoral three times per week) is recorded as “CD8+ cell depletion abrogated the effect of sialic acid blockade on tumor growth”. Further, the “effect of sialic acid blockade on tumor growth upon K1.1+ cell depletion” value in the data set with B16-F10 melanoma [3] (K1.1+ cell depletion, 0.3mg intratumoral three times per week) is given as “unaffected”. For the same compound, in the data set with B16-F10 melanoma [1], the “median survival time / survival time” value is given as “slightly prolonged the survival time”. In addition, the “activation / maturation of dendritic cells (CD80 expression)” value in data set [4] and in data set [5] was “enhances APC maturation with TLR ligands; also recorded: strongly enhances activation of dendritic cells” throughout. Further, the “expression of sialic acids in melanoma / cancer cells” value in the data set on mouse melanoma cells (Büll et al, 2013, listed as glycomimetic) was “potently blocks sialic acid synthesis and expression in cancer cells”; in the data set with mouse melanoma cells (Büll et al, 2013) it was “blocks the expression of sialic acids in mouse melanoma cells with high efficiency”. Moreover, in the data set on mouse melanoma cells (Büll et al, 2013), the “duration of the blocking effect” value is reported as “almost four days”. In the data set with mammalian cells, the “depletion of sialic acids from mammalian cells” value is “deplete sialic acids from mammalian cells”. In the data set on mammalian cells (mammalian cells), the cellular cytotoxicity entry is on record as “without causing cellular cytotoxicity”. The “adhesion and migration of tumor cells” value in the data set on tumor cells is “can impair adhesion and migration of tumor cells”. Also, in the data set on melanoma cells, the “growth of melanoma cells treated with the inhibitor before injection into mice” value was “grow significantly slower”.
